According to patent publication US20110082130A1 (LIGAND PHARMACEUTICALS, INC., priority 2006, published 2011):

The compounds below were run against T1, chimeric human H3 receptor (Homo sapiens, UniProt Q9Y5N1) (assay: Chimeric human H3 receptor screening GTP binding assay (inhibition of histamine-stimulated GTP-gamma35S binding, Example 8)). Settings: 4 μM of the compound, 1 μM histamine, "†" in Ki of Table II, read-out: percent inhibition of the signal obtained with 1 μM histamine.
T1 construct: made in house; host or cells: Sf9 insect cells (baculovirus); P2 membrane preparation
T1 sequence (Q9Y5N1 with tags, fused parts or gaps): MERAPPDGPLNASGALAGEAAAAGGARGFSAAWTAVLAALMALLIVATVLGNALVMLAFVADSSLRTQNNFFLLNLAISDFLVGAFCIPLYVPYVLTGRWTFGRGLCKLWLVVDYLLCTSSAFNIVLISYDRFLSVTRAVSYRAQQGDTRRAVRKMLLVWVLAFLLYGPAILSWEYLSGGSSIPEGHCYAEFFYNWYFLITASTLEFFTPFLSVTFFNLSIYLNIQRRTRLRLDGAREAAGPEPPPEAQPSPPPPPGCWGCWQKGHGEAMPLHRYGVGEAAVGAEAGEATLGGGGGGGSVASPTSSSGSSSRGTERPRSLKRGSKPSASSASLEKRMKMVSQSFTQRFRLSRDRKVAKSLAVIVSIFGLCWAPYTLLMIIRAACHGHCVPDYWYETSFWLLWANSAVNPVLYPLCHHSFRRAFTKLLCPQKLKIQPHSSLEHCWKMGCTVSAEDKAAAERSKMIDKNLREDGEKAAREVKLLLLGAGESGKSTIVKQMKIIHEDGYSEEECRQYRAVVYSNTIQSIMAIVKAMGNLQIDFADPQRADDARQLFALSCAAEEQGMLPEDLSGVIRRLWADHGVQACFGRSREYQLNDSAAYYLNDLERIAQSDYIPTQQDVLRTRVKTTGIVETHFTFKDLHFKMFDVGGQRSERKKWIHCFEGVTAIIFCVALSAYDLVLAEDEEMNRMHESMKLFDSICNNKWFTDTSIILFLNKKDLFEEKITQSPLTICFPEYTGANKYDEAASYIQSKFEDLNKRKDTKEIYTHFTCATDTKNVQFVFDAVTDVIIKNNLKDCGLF
Format: biochemical
How it was run: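 Values are percent inhibition of 1 μM histamine-stimulated GTP-gamma35S […] binding, with non-specific binding (10 μM GTP-gammaS) subtracted, by compounds tested at 4 μM. Membranes (35 μg) from Sf9 cells expressing chimeric human H3 with G-protein subunits were used in Tris pH 7.4 buffer with 10 μM GDP. Incubation lasted 60 min at room temperature, followed by filtration and scintillation counting.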

Inhibition at 4 µM, ≥ 90%:
CC(C)(C)c1ccc(-c2ccc3c(c2)CCN(CC(=O)N2CCN(C4CCC4)CC2)C3)cc1 [Compound 471, 6-(4-tert-butylphenyl)-2-[2-(4-cyclobutylpiperazin-1-yl)-2-oxoethyl]-1,2,3,4-tetrahydroisoquinoline]
Cc1ccc(-c2ccc3c(c2)CCN(CC(=O)N2CCN(C4CCCC4)CC2)C3)c(F)c1 [Compound 421, 2-[2-(4-cyclopentylpiperazin-1-yl)-2-oxoethyl]-6-(2-fluoro-4-methylphenyl)-1,2,3,4-tetrahydroisoquinoline]
CC(C)N1CCN(C(=O)CN2CCc3cc(-c4ccc(OC(F)(F)F)cc4)ccc3C2)CC1 [Compound 481, 2-[2-(4-isopropylpiperazin-1-yl)-2-oxoethyl]-6-[4-(trifluoromethoxy)phenyl]-1,2,3,4-tetrahydroisoquinoline]
Cc1cc(-c2ccc3c(c2)CCN(CC(=O)N2CCN(C4CCCCC4)CC2)C3)ccc1F [Compound 431, 2-[2-(4-cyclohexylpiperazin-1-yl)-2-oxoethyl]-6-(4-fluoro-3-methylphenyl)-1,2,3,4-tetrahydroisoquinoline]
CCCc1ccc(-c2ccc3c(c2)CCN(CC(=O)N2CCN(C(C)C)CC2)C3)cc1 [Compound 466, 2-[2-(4-isopropylpiperazin-1-yl)-2-oxoethyl]-6-(4-propylphenyl)-1,2,3,4-tetrahydroisoquinoline]
O=C(CN1CCc2cc(-c3ccc4ccccc4c3)ccc2C1)N1CCN(C2CCCCC2)CC1 [Compound 418, 2-[2-(4-cyclohexylpiperazin-1-yl)-2-oxoethyl]-6-(2-naphthyl)-1,2,3,4-tetrahydroisoquinoline]

Same assay, conditions: Table II "Ki", symbol †, 4 μM of the compound, 1 μM histamine, read-out: percent inhibition of the signal obtained with 1 μM histamine

Inhibition at 4 µM, ≥ 90%:
O=C(CN1CCc2cc(-c3ccc(Oc4ccccc4)cc3)ccc2C1)N1CCN(C2CCC2)CC1 [Compound 486, 2-[2-(4-cyclobutylpiperazin-1-yl)-2-oxoethyl]-6-(4-phenoxyphenyl)-1,2,3,4-tetrahydroisoquinoline]
O=C(CN1CCc2cc(-c3cccc(F)c3F)ccc2C1)N1CCN(C2CCC2)CC1 [Compound 599, 2-[2-(4-cyclobutylpiperazin-1-yl)-2-oxoethyl]-6-(2,3-difluorophenyl)-1,2,3,4-tetrahydroisoquinoline]
CC(C)N1CCN(C(=O)CN2CCc3cc(-c4cccc(N(C)C)c4)ccc3C2)CC1 [Compound 539, 3-{2-[2-(4-isopropylpiperazin-1-yl)-2-oxoethyl]-1,2,3,4-tetrahydroisoquinolin-6-yl}-N,N-dimethylaniline]
CC(C)Oc1cccc(-c2ccc3c(c2)CCN(CC(=O)N2CCN(C4CCCC4)CC2)C3)c1 [Compound 514, 2-[2-(4-cyclopentylpiperazin-1-yl)-2-oxoethyl]-6-(3-isopropoxyphenyl)-1,2,3,4-tetrahydroisoquinoline]
COc1ccc(C(C)C)cc1-c1ccc2c(c1)CCN(CC(=O)N1CCN(C3CCCCC3)CC1)C2 [Compound 556, 2-[2-(4-cyclohexylpiperazin-1-yl)-2-oxoethyl]-6-(5-isopropyl-2-methoxyphenyl)-1,2,3,4-tetrahydroisoquinoline]
O=C(CN1CCc2cc(-c3cc(F)cc(F)c3)ccc2C1)N1CCN(C2CCCCC2)CC1 [Compound 598, 2-[2-(4-cyclohexylpiperazin-1-yl)-2-oxoethyl]-6-(3,5-difluorophenyl)-1,2,3,4-tetrahydroisoquinoline]
O=C(CN1CCc2cc(-c3ccccc3Oc3ccccc3)ccc2C1)N1CCN(C2CCC2)CC1 [Compound 575, 2-[2-(4-cyclobutylpiperazin-1-yl)-2-oxoethyl]-6-(2-phenoxyphenyl)-1,2,3,4-tetrahydroisoquinoline]
